Measurements taken from US20110166066A1, “CATESTATIN (CST) AND ITS VARIANTS FOR TREATMENT OF CARDIOVASCULAR AND METABOLIC DISORDERS” (priority 2008, published 2011).
“Also recorded” adds a separate entry of the source. Where a name gives a salt, the structure may show the parent alone. Read-outs that look alike come from different tables or passages of the source. No end group written: not given here.

B1: vasostatin: another peptide derived from CgA, inhibited angiogenesis induced by VEGF (peptide, UniProt P10645 19-94, looked up)
Vasostatin-1: LPVNSPMNKGDTEVMKCIVEVISDTLSKPSPMPVSQECFETLRGDERILSILRHQNLLKELQDLALQGAKERAHQQ
modifications: Vasostatin-1

Experiments:
[1] = system: WT and Chga knockout (KO) mice; assay: Response to PE or SNP and baroreflex sensitivity in unconscious mice; assay type: in vivo; settings: for Increase in SBP: 0.005 μg/g bw iv
Experimental: Unconscious mice. Surgical procedures for hemodynamic measurements: Hemodynamic evaluation in both WT and KO mice was performed under general anesthesia [ketamine (100 mg/kg) and xylazine (2.5 mg/kg)] while connected to a ventilator. LV pressure was monitored by Millar micromanometer catheter of size 1.4 French (0.46 mm; Millar Instruments, Houston, Tex.); it was inserted into the LV where phasic and mean pressure was continuously monitored (Gould, Cleveland, Ohio). A venous catheter (MicroRenathane tube MRE-033; Braintree Laboratories, Braintree, Mass.) is implanted on right femoral vein for injection of peptide and other reagents. All physiologic signals were acquired by WINDAQ (Dataq Instruments, Akron, Ohio) and analyzed by BP-Analysis software (developed for own laboratory).
Assessment of baroreflex sensitivity (BRS): BRS (in milliseconds per mmHg) was assessed by both high-pressure [phenylephrine (PE) bolus] and low-pressure [sodium nitroprusside (SNP) bolus] stimuli in unconscious mice. Although conscious animals provide optimal physiological data, a host of undesirable signals are triggered by physical activities, and sleep cycle alterations in behavioral state. Therefore, we have chosen to conduct the experiments in unconscious mice to avoid some of the pitfalls encountered in awake animals. The absolute changes of HR in response to changes in SBP induced by PE or SNP were subjected to linear regression analysis to determine BRS. To test the effect of CST on BRS in KO mice, CST was injected (40 μg/g bw iv) 30 min before the injection of PE or SNP through the catheter implanted into the femoral vein.
BRS to high-pressure stimulus. High pressure BRS was evaluated by recording diminution of HR in response to PE-induced hypertension. Changes in SBP and HR were recorded continuously for 0.5 min after a bolus injection of PE (0.005 μg/g bw iv). This dose was selected from a preliminary dose-response study (0.001-0.05 μg/g bw iv).
BRS to low-pressure stimulus. This was evaluated by recording increments in HR in response to SNP-induced fall in BP. Changes in SBP and HR were recorded continuously for 0.5 min after a bolus injection of SNP (0.05 μg/g bw iv). This dose was selected from a preliminary dose-response study (0.01-0.1 μg/g bw iv).

[2] = system: Langendorff perfused rat heart; assay: Isoproterenol stimulated Langendorff heart preparations; settings: P370L-CST 165 nM, G364S-CST 200 nM; for ISO-induced stimulation of LVP (concentration-response): ISO 0.1 nM to 1 μM, WT-CST 33 and 110 nM
[3] = system: Langendorff perfused rat heart; assay: as above; settings: for Coronary pressure (ISO alone or ISO + peptide) / Inotropism (ISO alone or ISO + peptide) / Lusitropism (ISO alone or ISO + peptide): Table 3, ISO 5 nM; for ISO stimulatory effect on LVP: measured at 5 min
Experimental: Isoproterenol stimulated preparations—Cardiac preparations were stabilized for 20 min with KHs and then perfused with 5 nM ISO for 10 min. ISO was washed-out with KHs. After returning to control conditions, each heart was perfused with KHs containing a single concentration of WT-Cts […] or G364S-Cts (200 nM) with 5 nM ISO for a further 10 min.
To further describe the antagonistic action of either WT-Cts (33 nM), P370L-Cts (110 nM) or G364S-Cts (200 nM) against ISO-dependent stimulation, dose-response curves were generated by perfusing the heart preparations with KHs enriched with increasing concentrations of ISO (0.1 nM to 1 μM) alone. These curves were then compared to those obtained by exposing other cardiac preparations to the same perfusion medium containing increasing concentrations of ISO (0.1 nM to 1 μM) plus a single concentration of either WT-Cts (33 nM) or P370L-Cts (110 nM) or G364S-Cts (200 nM).
Statistics—Data are expressed as the mean±SEM. Curve fitting was accomplished in the program Kaleidagraph (Synergy Software, Reading, Pa.). Peptide EC50 and IC50 values were interpolated as the concentration that achieved 50% stimulation and inhibition, respectively. For analysis of phosphorylated proteins, levels were quantified using Bio-Rad QuantifyOne and volumes of phosphorylated proteins were divided by the levels of non-phosphorylated proteins to calculate fold activation. Stimulation of protein activity was expressed as fold increase over vehicle-treated control. The means and S.E.M. were calculated for each treatment. Multiple comparisons were made using either one-way ANOVA followed by Bonferroni's post-hoc test or two-way ANOVA. Statistical significance was concluded at p<0.05. Statistics were computed with the program InStat (GraphPad Software, Inc., San Diego, Calif.).
To characterize the inhibitory action of either WT-CST (11, 33 or 110 nM), G364S-CST (200 nM) or P370L-CST (110 nM) toward ISO-dependent stimulation of cardiac function, heart preparations were perfused with KHs containing increasing concentrations of ISO (0.1 nM to 1 μM) either alone or in combination with one of the three CST variants.

[4] = system: Langendorff perfused rat heart; assay: ET-1 stimulated Langendorff heart preparations; settings: for ET-1 induced positive inotropism: ET-1 1 nM, WT-CST 33 nM, P370L-CST 110 nM, G364S-CST 200 nM
Experimental: ET-1 stimulated preparations—Hearts, stabilized for 20 min with KHs, were perfused for 10 min with ET-1 (1 nM) and then washed-out with KHs. After returning to control conditions, each heart was perfused with KHs containing a single concentration of either WT-Cts (33 nM), P370L-Cts (110 nM) or G364S-Cts (200 nM) plus 1 nM ET-1 for a further 10 min.

[5] = system: Langendorff perfused rat heart; assay: Langendorff perfused rat heart, basal conditions: concentration-response of catestatin peptides; settings: for Activity rank order / Inotropism / Lusitropism: basal conditions, Table 2
Description: Animals-Male Wistar rats (Morini, Bologna, Italy S.P.A.) weighing 180-250 g were housed (three per cage) in a ventilated cage rack system under standard conditions. Animals had food and water access ad libitum. The investigation conforms to the Guide for the Care and Use of Laboratory Animals, according to NIH Publication No. 85-23, revised 1996. Isolated heart preparation-Rats were anesthetized with ethyl carbamate (2 g/Kg rat, i.p.), the hearts rapidly excised and then transferred in ice-cold buffered Krebs-Henseleit solution (KHs). As previously described (23), the aorta was immediately cannulated with a glass cannula and connected to Langendorff apparatus to start perfusion at constant flow-rate (12 ml/min). Briefly, the apex of the left ventricle (LV) was pierced to avoid fluid accumulation. A water-filled latex balloon, connected to a pressure transducer ([…], Inc. USA), was inserted through mitral valve into the LV allowing isovolumic contractions and continuous mechanical parameters recording. Another pressure transducer located just above the aorta recorded coronary pressure (CP). […] Hemodynamic parameters were assessed using a PowerLab data acquisition system and analysed using Chart software (both purchased by ADInstruments, Basile, Italy). […] Curve fitting was accomplished in the program Kaleidagraph (Synergy Software, Reading, Pa.). Peptide EC50 and IC50 values were interpolated as the concentration that achieved 50% stimulation and inhibition, respectively. For analysis of phosphorylated proteins, levels were quantified using Bio-Rad QuantifyOne and volumes of phosphorylated proteins were divided by the levels of non-phosphorylated proteins to calculate fold activation. Stimulation of protein activity was expressed as fold increase over vehicle-treated control. The means and S.E.M. were calculated for each treatment. Multiple comparisons were made using either one-way ANOVA followed by Bonferroni's post-hoc test or two-way ANOVA. Statistical significance was concluded at p<0.05. Statistics were computed with the program InStat (GraphPad Software, Inc., San Diego, Calif.).

[6] = system: sympathochromaffin cells; settings: in vitro; cited from earlier work
[7] = system: ECs; settings: cited from earlier work

Row | Molecule | Coronary pressure (ISO alone or ISO + peptide) [3] | Inotropism (ISO alone or ISO + peptide) [3] | Lusitropism (ISO alone or ISO + peptide) [3] | Activity rank order [5] | Inotropism [5] | Lusitropism [5] | ET-1 induced positive inotropism [4] | ISO-induced stimulation of LVP (concentration-response) [2] | ISO induced coronary dilation ([3]; ISO 5 nM) | ISO-induced positive lusitropism ([3]; ISO 5 nM) | Rank order of potency against ISO ([3]; ISO 5 nM) | ISO stimulatory effect on LVP ([3]; ISO 5 nM) | Rank order of potency, inhibition of catecholamine secretion [6] | also measured
1 | CNC[C@H](O)c1cccc(O)c1 [PE, phenylephrine] | – | – | – | – | – | – | – | – | – | – | – | – | – | PE-induced bradycardia ([1]; KO mice): completely abolished; Increase in SBP ([1]; KO mice): 45.6 mmHg; Decrease in HR ([1]; WT mice, 0.005 μg/g bw): 26 bpm; Increase in SBP ([1]; WT mice): 34.1 mmHg
2 | CC(C)NCC(O)c1ccc(O)c(O)c1 (centres unmarked) [ISO, Isoproterenol hydrochloride, reference compound] | Vasodilation | Positive | Positive | – | – | – | – | – | – | – | – | – | – | EC50 ([2]; Rattus norvegicus, Table 3, values match WT-CST 110 nM, read-out: EC50 (ISO on LVP, alone or + peptide) (converted)): 2.14 nM; Effect of ISO alone on LVP ([3]; 5 nM to 1 μM): increased LVP significantly; EC50 ([3]; Rattus norvegicus, ISO alone, read-out: EC50 of ISO-mediated LVP stimulation (converted)): 2.14 nM
3 | endothelin-1 (CSCSSLMDKECVYFCHLDIIW; ends and bridges not checked; cysteine pairing not given here; UniProt P05305 53-73, looked up) [ET-1, endothelin-1, purchased from Sigma, reference compound] | – | – | – | – | – | – | – | – | – | – | – | – | – | Effect on LVP and +(LVdP/dT)max ([4]; 1 nM): increased; Effect on coronary constriction ([4]; ET-1 alone 1 and 10 nM): significant increase in coronary constriction
4 | P370L-CST: SEQ ID NO. 3 SSMKLSFRARAYGFRGPGLQL, naturally occurring Pro370Leu variant of catestatin (listed as Homo sapiens) | No effect | Abolished | Abolished | Activity: WT-CST > P370L-CST > G364S-CST | Negative | No effect | blocked | significantly inhibited | remaining unchanged | failed to modulate | Order of potency: WT-CST > G364S-CST > P370L-CST | abolished | Pro370Leu>wild-type (WT)>Gly364Ser>Arg374Gln; also recorded: Pro370Leu>wildtype (WT)>Gly364Ser>Arg374Gln | Concentration of maximum decrease in +(LVdP/dT)max [5]: 200 nM; Concentration of maximum decrease in LVP and RPP [5]: 200 nM; Effect on −(LVdP/dT)max [5]: marked decrease; Effect on CP (coronary pressure) ([5]; basal): not accompanied by changes; Effect on HR ([5]; basal, WT-Cts significant at 33 nM): not accompanied by changes; Inotropic effect (LVP, RPP) ([5]; from 110 to 200 nM): negative inotropism; Effect on +(LVdP/dT)max ([5]; starting from 110 nM): marked decrease
5 | G364S-CST: SEQ ID NO. 4 SSMKLSFRARAYSFRGPGPQL, naturally occurring Gly364Ser variant of catestatin (listed as Homo sapiens) | Abolished | Abolished | Abolished | Activity: WT-CST > P370L-CST > G364S-CST | No effect | No effect | blocked | significantly inhibited | blocked | blocked | Order of potency: WT-CST > G364S-CST > P370L-CST | abolished | Pro370Leu>wild-type (WT)>Gly364Ser>Arg374Gln; also recorded: Pro370Leu>wildtype (WT)>Gly364Ser>Arg374Gln | Other parameters tested (HR, LVP, +(LVdP/dT)max, −(LVdP/dT)max) ([5]; 11 to 200 nM): unaffected; Effect on RPP ([5]; even at 33 nM): significant increase; Block of ISO-dependent +(LVdP/dT)max ([3]; ISO 5 nM): > 100%; ISO-dependent decrease of T/−t ([3]; ISO 5 nM): blocked
6 | B1 | – | – | – | – | – | – | – | – | – | – | – | – | – | Concentration at which effects were found [7]: 330 nM
